# Read-outs that look alike come from different tables or passages of the source.
# Legend:
# [1] = tested on: Pseudomonas aeruginosa; test: Phenotypic QolorAST rapid AST (resazurin reduction); assay type: cell-based; conditions: 10^5 cfu/mL PA, antibiotic concentrations, 0-60 min
# Method: (§1) Resistant E. coli, Oxacillin-resistant S. aureus, and Cipro. Resistant PA respectively was used. The aliquots were incubated at 37° C. different periods starting from 0 minutes incubation till 60 minutes with a time step of 5 minutes.
# (§2) Resistant PA respectively was used. The aliquots were incubated at 37° C. different periods starting from 0 minutes incubation until 60 minutes with a time step of 5 minutes.
# (§3) MRSA and PA respectively.
# [2] = tested on: MRSA; test: as above; assay type: cell-based, Staphylococcus aureus; conditions: 10^5 cfu/mL MRSA, antibiotic concentrations, 0-60 min
# Method: as §1, §2, §3
# [3] = tested on: MRSA; test: QolorAST minimum inhibitory concentration (MIC) test; assay type: cell-based, Staphylococcus aureus
# Method: Ampicillin-resistant E. coli strain mm294 was cultured overnight at 37° C. in Luria broth (LB) media supplemented with 100 μg/mL Ampicillin. […] Next, the bacterial concentration was determined by optical density technique using a Spectronic 21D spectrophotometer. Subsequently, aliquots of different concentrations were prepared for the antibiotic susceptibility testing experiments in LB media. Biotyper spectra (MALDI Bruker).
# 5×10^5 CFU ml^−1 Oxacillin-resistant S. aureus aliquots were prepared using resazurin/oxacillin solution using different concentrations of oxacillin antibiotic (16 μg/mL, 32 μg/mL, and 64 μg/mL). 5×10^5 CFU ml^−1 Cipro.
# A minimum inhibitory concentration (MIC) was performed to study the QolorAST broad applicability in detecting bacterial resistance profiles and ensuring timely and efficient antimicrobial theraby. […] The antibiotics cover major bacterial inhibition mechanisms as inhibition of protein synthesis, cell wall synthesis, and/or DNA synthesis.
# QolorAST exploited two methodologies: Manual MIC (MA-MIC) and support vector machine MIC (SVM-MIC). […] The SVM-MIC was carried out with a rbf kernel that was optimized and trained to predict the color change of the preclinical images using our library of bacteria images collected under different conditions including images where color is changed, color transitioning, and no color change. The SVM successfully classified the condition's bacteria-antibiotic in the concentration range studied.
# [4] = tested on: E. coli
# Method: To evaluate the QolorAST performance in clinical settings, a double-blinded clinical study at the McGill University Health Center (MUHC) was performed. 47 patients suspected of urinary tract infections, admitted to MUHC emergency clinics between August 2022 to August 2023 were tested. Specimens were consented, collected from the patients and the experiments were done in microbiology labs in MUHC. Each specimen were divided in 3 to be tested in parallel in the central laboratory of the hospital (quantification, identification and MIC), in the research laboratory (quantification, identification and MIC for 2 antibiotics) and with QolorAST genotypic/phenotypic assays in microbiology lab at MUHC. The device has 24 chambers where the media/resazurin/antibiotic mixes as well as the patient samples are injected mixed. […] Therefore, reagent loading port was preloaded with media, specific concentration antibiotic and resazurin at final concentration of 0.25 mg/mL and urine was added to urine loading port. Thereafter, by pressing the pushing button the urine was mixed with the rest of solution at a volumetric ratio of 1:4 which would be the starting point for incubation and imaging of the samples. The samples were incubated at 37° C. at different timepoints starting from 0 to 60 minutes with a time interval of 10 minutes and the imaging was performed as described above.
# [5] = tested on: E. coli; test: Standard broth microdilution MIC on isolates from patient urine specimens; assay type: cell-based, Escherichia coli
# Method: For the standard testing the urine specimens were diluted 1/1000 using CamHB and both the original concentration and a 1/1000 dilution of the specimen were plated on BAP with a 1 μL calibrated loop and incubated for 18-20h at 37 C with 5% CO2. The […] concentration is then calculated for all the isolates coming from each specimen. […] At the end of the process, the inoculum quantification is checked by counted CFU from serial dilutions of the inoculum. A growth positive control (inoculum with no antibiotic), a wild type strain of E. Coli (MG1655) and E. Faecalis are also included and processed in the same way as the isolates for each experiment. Finally, each isolate is plated on BAP to control their monoculture state and to be identified by MALDI.
# Samples were tested in parallel using two methods: conventional (Matrix-assisted laser desorption/ionization-time of flight—MALDI/TOF—for bacterial identification and CLSI BMD method for AST) and QolorAST (genotypic for bacterial ID and phenotypic AST). […] Subsequently, we used the images of negative, fastidious, and not fastidious samples to establish a new training for the SVM to classify the specimens into no growth (negative) and growth (positive) classes. We implemented a detection time of 30 mins and a cutoff threshold of 0.6 to differentiate between positive and negative specimens (FIG. 34G).
compound,measurement,setting,value
O=C(O)c1cn(C2CC2)c2cc(N3CCNCC3)c(F)cc2c1=O [Ciprofloxacin],QolorAST colour readout over incubation,[1],consistent color change from blue to green
same,QolorAST colour readout over incubation,[2],consistent blue color
same,QolorAST MIC Manual (MA-MIC),[3],1 µg/mL
same,QolorAST MIC SVM (SVM-MIC),[3],1 µg/mL
same,resistance or susceptibility,[3],susceptibility
O=C1CN(/N=C/c2ccc([N+](=O)[O-])o2)C(=O)N1 [Nitrofurantoin],QolorAST MIC Manual (MA-MIC),"[4]; Patient # 49, urine specimen",8
same,QolorAST MIC SVM (SVM-MIC),"[4]; Patient # 49, urine specimen",8
same,QolorAST MIC Manual (MA-MIC),"[4]; Patient # 50, urine specimen",8
same,QolorAST MIC SVM (SVM-MIC),"[4]; Patient # 50, urine specimen",8
same,QolorAST MIC Manual (MA-MIC),"[4]; Patient # 51*, urine specimen",<0.25
same,QolorAST MIC SVM (SVM-MIC),"[4]; Patient # 51*, urine specimen",<0.25
same,QolorAST MIC Manual (MA-MIC),"[4]; Patient # 52, urine specimen",16
same,QolorAST MIC SVM (SVM-MIC),"[4]; Patient # 52, urine specimen",16
same,QolorAST MIC Manual (MA-MIC),"[4]; Patient # 53, urine specimen",4
same,QolorAST MIC SVM (SVM-MIC),"[4]; Patient # 53, urine specimen",4
same,QolorAST MIC Manual (MA-MIC),"[4]; Patient # 54, urine specimen",4
same,QolorAST MIC SVM (SVM-MIC),"[4]; Patient # 54, urine specimen",4
same,QolorAST MIC Manual (MA-MIC),"[4]; Patient # 55, urine specimen",8
same,QolorAST MIC SVM (SVM-MIC),"[4]; Patient # 55, urine specimen",8
same,QolorAST MIC Manual (MA-MIC),"[4]; Patient # 56, urine specimen",8
same,QolorAST MIC SVM (SVM-MIC),"[4]; Patient # 56, urine specimen",8
same,QolorAST MIC Manual (MA-MIC),"[4]; Patient # 57, urine specimen",8
same,QolorAST MIC SVM (SVM-MIC),"[4]; Patient # 57, urine specimen",8
same,QolorAST MIC Manual (MA-MIC),"[4]; Patient # 58, urine specimen",8
same,QolorAST MIC SVM (SVM-MIC),"[4]; Patient # 58, urine specimen",8
same,QolorAST MIC Manual (MA-MIC),"[4]; Patient # 59, urine specimen",16
same,QolorAST MIC SVM (SVM-MIC),"[4]; Patient # 59, urine specimen",16
same,QolorAST MIC Manual (MA-MIC),"[4]; Patient # 60, urine specimen",4
same,QolorAST MIC SVM (SVM-MIC),"[4]; Patient # 60, urine specimen",4
same,QolorAST MIC Manual (MA-MIC),"[4]; Patient # 61, urine specimen",4
same,QolorAST MIC SVM (SVM-MIC),"[4]; Patient # 61, urine specimen",4
same,QolorAST MIC Manual (MA-MIC),"[4]; Patient # 62, urine specimen",6
same,QolorAST MIC SVM (SVM-MIC),"[4]; Patient # 62, urine specimen",6
same,QolorAST MIC Manual (MA-MIC),"[4]; Patient # 63, urine specimen",4
same,QolorAST MIC SVM (SVM-MIC),"[4]; Patient # 63, urine specimen",4
same,QolorAST MIC Manual (MA-MIC),"[4]; Patient # 64, urine specimen",8
same,QolorAST MIC SVM (SVM-MIC),"[4]; Patient # 64, urine specimen",8
same,QolorAST MIC Manual (MA-MIC),"[4]; Patient # 65, urine specimen",8
same,QolorAST MIC SVM (SVM-MIC),"[4]; Patient # 65, urine specimen",8
same,QolorAST MIC Manual (MA-MIC),"[4]; Patient # 66, urine specimen",8
same,QolorAST MIC SVM (SVM-MIC),"[4]; Patient # 66, urine specimen",8
same,QolorAST MIC Manual (MA-MIC),"[4]; Patient # 67*, urine specimen",<0.25
same,QolorAST MIC SVM (SVM-MIC),"[4]; Patient # 67*, urine specimen",<0.25
same,QolorAST MIC Manual (MA-MIC),"[4]; Patient # 68, urine specimen",8
same,QolorAST MIC SVM (SVM-MIC),"[4]; Patient # 68, urine specimen",8
same,Broth Microdilution MIC (MIC),"[5]; Patient # 49, E. coli",8
same,Broth Microdilution MIC (MIC),"[5]; Patient # 50, E. coli",8
same,Broth Microdilution MIC (MIC),"[5]; Patient # 51*, E. coli",16
same,Broth Microdilution MIC (MIC),"[5]; Patient # 52, E. coli",16
same,Broth Microdilution MIC (MIC),"[5]; Patient # 53, E. coli",6
same,Broth Microdilution MIC (MIC),"[5]; Patient # 54, E. coli",4
same,Broth Microdilution MIC (MIC),"[5]; Patient # 55, E. coli",8
same,Broth Microdilution MIC (MIC),"[5]; Patient # 56, E. coli",8
same,Broth Microdilution MIC (MIC),"[5]; Patient # 57, E. coli",8
same,Broth Microdilution MIC (MIC),"[5]; Patient # 58, E. coli",8
same,Broth Microdilution MIC (MIC),"[5]; Patient # 59, E. coli",16
same,Broth Microdilution MIC (MIC),"[5]; Patient # 60, E. coli",16
same,Broth Microdilution MIC (MIC),"[5]; Patient # 61, E. coli",4
same,Broth Microdilution MIC (MIC),"[5]; Patient # 62, E. coli",6
same,Broth Microdilution MIC (MIC),"[5]; Patient # 63, E. coli",4
same,Broth Microdilution MIC (MIC),"[5]; Patient # 64, E. coli",8
same,Broth Microdilution MIC (MIC),"[5]; Patient # 65, E. coli",8
same,Broth Microdilution MIC (MIC),"[5]; Patient # 66, E. coli",8
same,Broth Microdilution MIC (MIC),"[5]; Patient # 67*, E. coli",2
same,Broth Microdilution MIC (MIC),"[5]; Patient # 68, E. coli",8
